Measurements published in the Deep4Chem optical property database.
Blank lines part the entries; values can stand above or below the compound they belong to.

Experiment: solvent given as SMILES

Structure (SMILES): CC1(C)c2ccccc2N(c2ccc(-c3nnc(-c4ccc(-n5c6ccccc6c6ccccc65)cc4)o3)cc2)c2ccccc21
emission maximum (in Cc1ccccc1): 460 nm | emission maximum (in O=P(c1ccccc1)(c1ccccc1)c1ccccc1Oc1ccccc1P(=O)(c1ccccc1)c1ccccc1): 479 nm

Structure (SMILES): COC(=O)CC1(C(=O)OC)Oc2c(c(C(C)=O)c3c(c2C(C)=O)OCO3)O1
emission maximum (in CC#N): 532 nm

Structure (SMILES): O=c1c(Nc2ccccc2)c([O-])c1=[NH+]c1ccccc1
emission maximum (in C1CCOC1): 477 nm | emission maximum (in CC#N): 496 nm | emission maximum (in CC(C)=O): 490 nm | emission maximum (in CCO): 492 nm | emission maximum (in CCOCC): 484 nm | emission maximum (in CN1CCCC1=O): 495 nm | emission maximum (in CN(C)C=O): 502 nm | emission maximum (in CO): 498 nm | emission maximum (in CS(C)=O): 504 nm | emission maximum (in O): 504 nm

Structure (SMILES): [NH-]c1cc(N)cc(-c2nc3ccccc3s2)c1
emission maximum (in O): 484 nm

Structure (SMILES): COC(=O)C(Cc1ccc2oc(-c3ccc(N(c4ccccc4)c4ccccc4)cc3)nc2c1)NC(=O)OC(C)(C)C (centres undefined)
emission maximum (in C1CCCCC1): 395.25 nm | emission maximum (in C1CCOC1): 447.04 nm | emission maximum (in C1COCCO1): 436.75 nm | emission maximum (in CC1CCCCC1): 395 nm | emission maximum (in CC1COC(=O)O1): 474 nm | emission maximum (in CC#N): 465.75 nm | emission maximum (in CC(C)=O): 456.17 nm | emission maximum (in CC(C)O): 455.75 nm | emission maximum (in CC(O)CO): 482.75 nm | emission maximum (in CCCCCC): 392.75 nm | emission maximum (in CCCCCCCC): 394 nm | emission maximum (in CCCCCO): 454.75 nm | emission maximum (in CCCCO): 454.5 nm | emission maximum (in CCO): 475.75 nm | emission maximum (in CCOC(C)=O): 448.75 nm | emission maximum (in CN(C)C=O): 461.75 nm | emission maximum (in CO): 486 nm | emission maximum (in COCCOC): 453.75 nm | emission maximum (in CS(C)=O): 474.5 nm | emission maximum (in ClC(Cl)Cl): 445 nm | emission maximum (in ClCCl): 451.25 nm | emission maximum (in N#Cc1ccccc1): 461.25 nm | emission maximum (in NC=O): 491.5 nm | emission maximum (in O): 502.99 nm | emission maximum (in OCC(F)(F)F): 496.25 nm

Structure (SMILES): COc1ccc(-c2nc(N)nc(C#N)c2C#N)cc1OC
emission maximum (in C1COCCO1): 428 nm | emission maximum (in CC#N): 456 nm | emission maximum (in CC(C)=O): 430 nm | emission maximum (in CCO): 436 nm | emission maximum (in CCOC(C)=O): 442 nm | emission maximum (in CO): 442 nm

Structure (SMILES): C1=[N+](c2ccccc2)[B-]2(Oc3c1ccc1c4c(ccc31)C=[N+](c1ccccc1)[B-]1(O4)c3ccccc3Oc3ccccc31)c1ccccc1Oc1ccccc12
emission maximum (in Cc1ccccc1): 605 nm | emission maximum (in ClCCl): 599 nm

Structure (SMILES): CCCCCCn1c2cc(C=O)sc2c2sc3c(sc4c5sc(C=O)cc5n(CCCCCC)c43)c21
emission maximum (in ClCCl): 496 nm

Structure (SMILES): CC(C)(C)c1ccc2c3c(c4ccc(C(C)(C)C)cc4c2c1)=[N+]1C(=C(c2ccccc2)c2c(Br)c4c5ccc(C(C)(C)C)cc5c5cc(C(C)(C)C)ccc5c4n2[B-]1(F)F)C=3Br
emission maximum (in C1CCCCC1): 711 nm | emission maximum (in C1CCOC1): 715 nm | emission maximum (in CC#N): 714 nm | emission maximum (in Cc1ccccc1): 715 nm | emission maximum (in ClCCl): 717 nm

Structure (SMILES): O=S1(=O)C(c2ccsc2)=C(c2ccsc2)c2ccccc21
emission maximum (in C1CCOC1): 433 nm

Structure (SMILES): c1ccc2c(c1)Oc1ccccc1C21c2cc(-c3ccc4ccc5cccc6ccc3c4c56)ccc2-c2ccc(-c3ccc4ccc5cccc6ccc3c4c56)cc21
emission maximum (in ClC(Cl)Cl): 422 nm

Structure (SMILES): c1ccc(-n2c3ccccc3c3cc([Si](c4ccccc4)(c4ccccc4)c4ccc5c(c4)c4ccccc4n5-c4ccccc4)ccc32)cc1
emission maximum (in ClCCl): 350 nm

Structure (SMILES): C1=Cc2nc1c(-c1ccccc1)c1ccc([nH]1)c(-c1ccccc1)c1nc(c(-c3ccccc3)c3ccc([nH]3)c2-c2ccccc2)C=C1
emission maximum (in CC(=O)N(C)C): 650 nm | emission maximum (in ClCCl): 651 nm

Structure (SMILES): COc1ccc2c3ccc(OC)cc3n(-c3ccc(-c4nnc(-c5c(C)cc(C)cc5C)o4)cc3C)c2c1
emission maximum (in Cc1ccccc1): 436 nm

Structure (SMILES): CCN(CC)c1ccc2cc(-c3ccc(S(C)(=O)=O)cc3)oc(=O)c2c1
emission maximum (in CC(C)=O): 487 nm | emission maximum (in CCCCCC): 419 nm | emission maximum (in CCCCO): 476 nm | emission maximum (in CCCO): 480 nm | emission maximum (in CCO): 485 nm | emission maximum (in CCOC(C)=O): 465 nm | emission maximum (in CN(C)C=O): 499 nm | emission maximum (in CO): 489 nm | emission maximum (in ClC(Cl)Cl): 456 nm

Structure (SMILES): Nc1ccc2c(c1)C(=O)O/C2=C\c1ccc(Cl)cc1
emission maximum (in CC#N): 452.9 nm | emission maximum (in CC(C)=O): 448.83 nm | emission maximum (in CC(C)CO): 483.09 nm | emission maximum (in CC(C)O): 484.97 nm | emission maximum (in CCCO): 484.5 nm | emission maximum (in CCO): 487.33 nm | emission maximum (in CCOC(C)=O): 461.68 nm | emission maximum (in CCOCC): 427.17 nm | emission maximum (in CO): 492.13 nm

Structure (SMILES): c1csc(-c2ccc(-c3ccc(-c4cccs4)s3)s2)c1
emission maximum (in CCCCCCCCCCCCCC): 474 nm | emission maximum (in ClCCl): 480 nm

Structure (SMILES): C(#Cc1ccccc1C#Cc1ccccc1)c1ccccc1
emission maximum (in CC#N): 360 nm

Structure (SMILES): O=S1(=O)C2=C(c3ccc(-c4ccc(N(c5ccccc5)c5ccccc5)cc4)cc31)C1(C3=C(c4ccccc41)S(=O)(=O)c1cc(-c4ccc(N(c5ccccc5)c5ccccc5)cc4)ccc13)c1ccccc12
emission maximum (in C1CCOC1): 599 nm | emission maximum (in CC#N): 665 nm | emission maximum (in CCCCCC): 485 nm | emission maximum (in Cc1ccccc1): 543 nm | emission maximum (in ClCCl): 624 nm

Structure (SMILES): Cc1ccc(-n2c(-c3cccc4cc[n-]c34)[nH+]c3c4ccccc4c4ccccc4c32)cc1
emission maximum (in Cc1ccccc1): 566 nm

Structure (SMILES): CN(C)c1ccc(C2=CC(c3ccccc3)=[N+]3C2=Nc2c(-c4ccc(N(C)C)cc4)cc(-c4ccccc4)n2[B-]3(F)F)cc1
emission maximum (in Cc1ccccc1): 822 nm

Structure (SMILES): C(=C\c1cccnc1)/c1ccc(Nc2ccccc2)cc1
emission maximum (in CC#N): 456 nm | emission maximum (in CCCCCC): 385 nm

Structure (SMILES): O=C1NC(=O)c2ccc3c4ccc5c6c(ccc(c7ccc1c2c73)c64)C(=O)N(c1ccc(Cl)cc1)C5=O
emission maximum (in CN(C)C=O): 536 nm

Structure (SMILES): CC(C)[Si](C#Cc1c2nsnc2c(C#C[Si](C(C)C)(C(C)C)C(C)C)c2nc3c4ccccc4c(=O)c4ccccc4c3nc12)(C(C)C)C(C)C
emission maximum (in ClCCl): 594 nm

Structure (SMILES): N#Cc1ccc2nc3c(=O)[nH]c(=O)[nH]c3nc2c1
emission maximum (in ClCCCl): 430 nm

Structure (SMILES): CCCCN1C(=O)c2cc(Br)c3c4c(Br)c(Br)c5c6c(cc(Br)c(c7c(Br)c(Br)c(c2c37)C1=O)c64)C(=O)N(CCCC)C5=O
emission maximum (in ClC(Cl)Cl): 580 nm

Structure (SMILES): c1cc2cc(c1)c1cccc(c1)c1ccc3ccc4ccc(cc4c3c1)c1cccc(c1)c1cccc2c1
emission maximum (in Cc1ccccc1): 382 nm

Structure (SMILES): CSC1=C2C=C(c3cc4n(c3)[B-](F)(F)[N+]3=CC=CC3=C4c3c(C)cc(C)cc3C)C(C)=[N+]2[B-](F)(F)n2c(C)ccc21
emission maximum (in C1CCCCC1): 652 nm | emission maximum (in CC#N): 740 nm | emission maximum (in CC(C)=O): 694 nm | emission maximum (in CCOC(C)=O): 664 nm | emission maximum (in Cc1ccccc1): 663 nm

Continued, values first:

emission maximum (in ClCCl): 718 nm
Structure (SMILES): COc1c2ccccc2c(OC)c2c(C#Cc3ccccc3)c3cc4ccccc4cc3c(C#Cc3ccccc3)c12

emission maximum (in ClCCl): 554 nm
Structure (SMILES): Cc1cc(-c2cccc3ccccc23)cc(C)[o+]1

emission maximum (in ClCCl): 405 nm
Structure (SMILES): COc1cc2c(cc1OC)C1=C[C@H](c3ccc(Cl)cc3)C3(C(C#N)=C(C#N)N1CC2)c1ccccc1-c1ccccc13

emission maximum (in CCO): 446 nm
Structure (SMILES): CC(C)(C)OC(=O)NCCCC(=O)OCc1ccc2c3cccc4cccc(c5cccc1c52)c43

emission maximum (in C1CCCCC1): 456 nm | emission maximum (in CC#N): 568 nm | emission maximum (in CC(C)O): 558 nm | emission maximum (in CO): 577 nm | emission maximum (in CS(C)=O): 583 nm | emission maximum (in ClC(Cl)Cl): 504 nm | emission maximum (in c1ccccc1): 484 nm
Structure (SMILES): CN(C)c1ccc2nc(-c3ccc(C(=O)OC[C@H](NC(=O)OC(C)(C)C)C(=O)OCc4ccccc4)cc3)sc2c1

emission maximum (in C1CCCCC1): 535 nm | emission maximum (in ClC(Cl)Cl): 727 nm
Structure (SMILES): CN(C)c1ccc2nc(-c3ccc(C=C4C(=O)c5ccccc5C4=O)cc3)sc2c1

emission maximum (in C1CCCCC1): 400 nm | emission maximum (in CO): 420 nm
Structure (SMILES): COc1ccc(/C=C/c2nc3ccccc3s2)cc1

emission maximum (in ClCCl): 425 nm
Structure (SMILES): CCOC(=O)c1ccc(C2=Cc3ccccc3P2(=O)c2ccccc2)cc1 (centres undefined)

emission maximum (in ClC(Cl)Cl): 424 nm
Structure (SMILES): c1ccc2c(c1)ccc1ccc3ccc4ccccc4c3c12

emission maximum (in ClCCl): 560 nm
Structure (SMILES): F[B-]1(F)n2c(Cl)c(Cl)c(Br)c2C(Cl)=C2C(Br)=C(Cl)C(Cl)=[N+]21

emission maximum (in ClCCl): 716 nm
Structure (SMILES): COC(=O)c1ccc(C2=C3C=c4sc(-c5cccs5)cc4=[N+]3[B-](F)(F)n3c2cc2sc(-c4cccs4)cc23)cc1

emission maximum (in CCO): 537 nm
Structure (SMILES): CCOC(=O)c1cc(C(=O)OCC)c2cc(N)ccc2n1

emission maximum (in CC#N): 546 nm | emission maximum (in CCCCCC): 554 nm | emission maximum (in CCOC(C)=O): 549 nm | emission maximum (in CO): 548 nm | emission maximum (in ClCCl): 551 nm
Structure (SMILES): CCc1c(C)c2n(c1C)[B-](F)(F)[N+]1=C(NCc3ccc(OC)cc3)C=CC1=C2C

emission maximum (in ClCCl): 511 nm
Structure (SMILES): CCCCCCCCCCCCCCCCCCOc1ccc([B-]23NC(c4ccccc4)=Nc4cccc([n+]42)N=C(c2ccccc2)N3)cc1

emission maximum (in ClC(Cl)Cl): 498 nm
Structure (SMILES): c1ccc(-c2nc(-c3ccccn3)[se]c2N(c2ccccc2)c2ccccc2)cc1

emission maximum (in C1COCCO1): 425 nm | emission maximum (in CC#N): 436 nm | emission maximum (in CCCO): 495 nm | emission maximum (in CCO): 500 nm | emission maximum (in CN(C)C=O): 473 nm | emission maximum (in CO): 510 nm | emission maximum (in CS(C)=O): 480 nm | emission maximum (in ClC(Cl)Cl): 462 nm | emission maximum (in ClCCl): 460 nm
Structure (SMILES): COc1ccc(/C=C/C(=O)c2ccccc2O)cc1OC

emission maximum (in ClCCl): 537 nm
Structure (SMILES): COc1ccc(-c2cnc3cccc(-c4ccc(C(C)=O)cc4)n23)cc1

emission maximum (in CCO): 472 nm | emission maximum (in ClCCl): 460 nm
Structure (SMILES): CCN(CC)c1ccc2cc(C#N)/c(=N\C(=O)c3ccccc3)oc2c1

emission maximum (in C1CCCCC1): 421 nm | emission maximum (in CC#N): 432 nm | emission maximum (in CO): 428 nm | emission maximum (in ClCCl): 431 nm
Structure (SMILES): COc1c2ccccc2c(OC)c2c1c1cc(Cl)ccc1n2C

emission maximum (in C1CCCCC1): 415 nm | emission maximum (in CC#N): 413 nm
Structure (SMILES): C[Si](C)(c1ccc2cc3ccccc3cc2c1)[Si](C)(C)c1ccc2cc3ccccc3cc2c1

emission maximum (in CC#N): 352 nm | emission maximum (in CO): 360 nm
Structure (SMILES): CC(C)CCCN1c2ccccc2CCc2ccccc21

emission maximum (in C1COCCO1): 559 nm | emission maximum (in CC#N): 651 nm | emission maximum (in ClCCl): 611 nm
Structure (SMILES): CCCCN(CCCC)c1ccc(/C=C/c2ccc3nc(/C=C/c4ccc(N(C)C)cc4)c(=O)n(CCC)c3c2)cc1
